Assay results taken from the supplement of paper PMC9663587.

Legend:
Paclitaxel = compound: CC(=O)O[C@H]1C(=O)[C@@]2(C)[C@H]([C@H](OC(=O)c3ccccc3)[C@]3(O)C[C@H](OC(=O)[C@H](O)[C@@H](NC(=O)c4ccccc4)c4ccccc4)C(C)=C1C3(C)C)[C@]1(OC(C)=O)CO[C@@H]1C[C@@H]2O [Paclitaxel]
R0-3306 = compound: C1=CC2=C(C=CC(=C2)C=C3C(=O)NC(=NCC4=CC=CS4)S3)N=C1 [R0-3306]
Flavopiridol [1] = compound: T1, CN1CC[C@H](c2c(O)cc(O)c3c(=O)cc(-c4ccccc4Cl)oc23)[C@H](O)C1 [Flavopiridol]
[2] = compound: CCC1=CN=CN=C1N2CCN(CC2)CC3=NC4=C(N3)C=C(C=C4)C(F)(F)F
AZD5363 = compound: NC1(C(=O)N[C@@H](CCO)c2ccc(Cl)cc2)CCN(c2nc[nH]c3nccc2-3)CC1 [AZD5363]
BSJ-03-123 [3] = compound: T2, CC(=O)c1c(C)c2cnc(Nc3ccc(N4CCN(CCOCCOCCOCCNC(=O)COc5cccc6c5C(=O)N(C5CCC(=O)NC5=O)C6=O)CC4)cn3)nc2n(C2CCCC2)c1=O [BSJ-03-123]
[4] = compound: CO[C@@H](C)Cn1c(=O)n(C)c2cnc3ccc(-c4cncc(C(C)(C)O)c4)cc3c21
Neratinib/HKI272 = compound: CCOc1cc2ncc(C#N)c(Nc3ccc(OCc4ccccn4)c(Cl)c3)c2cc1NC(=O)/C=C/CN(C)C [Neratinib/HKI272]
BVD523 = compound: CC(C)Nc1cc(-c2c[nH]c(C(=O)N[C@H](CO)c3cccc(Cl)c3)c2)c(Cl)cn1 [BVD523]
[5] = compound: CCN1CCN(Cc2ccc(Nc3ncc(F)c(-c4cc(F)c5nc(C)n(C(C)C)c5c4)n3)nc2)CC1; assay: GR value, 72 h; higher = faster growth (1 = untreated, <0 = killing);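 also: breast cancer and non-malignant breast epithelial lines, nine half-log doses, viable cells counted by Hoechst and LIVE/DEAD dye imaging versus time-zero plates and DMSO controls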
YKL-5-124 = compound: C=CC(=O)Nc1ccc(C(=O)Nc2[nH]nc3c2CN(C(=O)N[C@H](CN(C)C)c2ccccc2)C3(C)C)cc1 [YKL-5-124]; assay: as above
[6] = compound: CCc1cnn2c(NCc3ccc[n+]([O-])c3)cc(N3CCCC[C@H]3CCO)nc12; assay: as above
Flavopiridol [7] = compound: T1, Flavopiridol; assay: as above
BSJ-03-123 [8] = compound: T2, BSJ-03-123; assay: as above
THZ1 = compound: CN(C)C/C=C/C(=O)Nc1ccc(C(=O)Nc2cccc(Nc3ncc(Cl)c(-c4c[nH]c5ccccc45)n3)c2)cc1 [THZ1]; assay: as above
THZ531 = compound: CN(C)C/C=C/C(=O)Nc1ccc(C(=O)N2CCC[C@@H](Nc3ncc(Cl)c(-c4c[nH]c5ccccc45)n3)C2)cc1 [THZ531]; assay: as above
LEE011/Ribociclib = compound: CN(C)C(=O)c1cc2cnc(Nc3ccc(N4CCNCC4)cn3)nc2n1C1CCCC1 [LEE011/Ribociclib]; assay: as above
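For GR50, 72 h in this document: breast cancer and non-malignant breast epithelial cell lines, Deep Dye Drop or Dye Drop imaging, nine half-log doses, GR normalized to time-zero plates and DMSO-only controls.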

T47D
GR50, 72 h (Paclitaxel): 0.00353 µM
GR50, 72 h (R0-3306): 7.12 µM
GR50, 72 h (Flavopiridol [1]): 0.116 µM
GR50, 72 h [2]: 3.75 µM
GR50, 72 h (AZD5363): 0.0138 µM
GR50, 72 h (BSJ-03-123 [3]): 0.00165 µM
GR50, 72 h [4]: < 0.001 µM
GR50, 72 h (Neratinib/HKI272): 0.423 µM
GR50, 72 h (BVD523): 3.63 µM
GR value ([5]; 0.001 µM): 0.86 GR
GR value ([5]; 0.003162 µM): 0.604 GR
GR value ([5]; 0.01 µM): 0.244 GR
GR value ([5]; 0.03162 µM): 0.0789 GR
GR value ([5]; 0.1 µM): 0.166 GR
GR value ([5]; 0.3162 µM): 0.117 GR
GR value ([5]; 1 µM): 0.171 GR
GR value ([5]; 3.162 µM): 0.0597 GR
GR value ([5]; 10 µM): -0.03 GR
GR value (YKL-5-124; 0.001 µM): 0.51 GR
GR value (YKL-5-124; 0.003162 µM): 0.332 GR
GR value (YKL-5-124; 0.01 µM): 0.172 GR
GR value (YKL-5-124; 0.03162 µM): 0.143 GR
GR value (YKL-5-124; 0.1 µM): 0.0629 GR
GR value (YKL-5-124; 0.3162 µM): 0.0978 GR
GR value (YKL-5-124; 1 µM): 0.082 GR
GR value (YKL-5-124; 3.162 µM): 0.0131 GR
GR value (YKL-5-124; 10 µM): -0.175 GR
GR value ([6]; 0.0001 µM): 0.999 GR
GR value ([6]; 0.0003162 µM): 1.01 GR
GR value ([6]; 0.001 µM): 1.08 GR
GR value ([6]; 0.003162 µM): 1.12 GR
GR value ([6]; 0.01 µM): 1.05 GR
GR value ([6]; 0.03162 µM): -0.0667 GR
GR value ([6]; 0.1 µM): -0.128 GR
GR value ([6]; 0.3162 µM): -0.19 GR
GR value ([6]; 1 µM): -0.22 GR
GR value (Flavopiridol [7]; 0.0001 µM): 0.983 GR
GR value (Flavopiridol [7]; 0.0003162 µM): 1.05 GR
GR value (Flavopiridol [7]; 0.001 µM): 0.945 GR
GR value (Flavopiridol [7]; 0.003162 µM): 1.05 GR
GR value (Flavopiridol [7]; 0.01 µM): 0.897 GR
GR value (Flavopiridol [7]; 0.03162 µM): 0.808 GR
GR value (Flavopiridol [7]; 0.1 µM): 0.548 GR
GR value (Flavopiridol [7]; 0.3162 µM): 0.148 GR
GR value (Flavopiridol [7]; 1 µM): -0.153 GR
GR value (BSJ-03-123 [8]; 0.001 µM): 0.505 GR
GR value (BSJ-03-123 [8]; 0.003162 µM): 0.473 GR
GR value (BSJ-03-123 [8]; 0.01 µM): 0.28 GR
GR value (BSJ-03-123 [8]; 0.03162 µM): 0.231 GR
GR value (BSJ-03-123 [8]; 0.1 µM): 0.228 GR
GR value (BSJ-03-123 [8]; 0.3162 µM): 0.203 GR
GR value (BSJ-03-123 [8]; 1 µM): 0.115 GR
GR value (BSJ-03-123 [8]; 3.162 µM): 0.165 GR
GR value (BSJ-03-123 [8]; 10 µM): 0.118 GR
GR value (THZ1; 0.0001 µM): 0.967 GR
GR value (THZ1; 0.0003162 µM): 1.08 GR
GR value (THZ1; 0.001 µM): 0.922 GR
GR value (THZ1; 0.003162 µM): 1.02 GR
GR value (THZ1; 0.01 µM): 0.841 GR
GR value (THZ1; 0.03162 µM): 0.474 GR
GR value (THZ1; 0.1 µM): -0.116 GR
GR value (THZ1; 0.3162 µM): -0.142 GR
GR value (THZ1; 1 µM): -0.269 GR
GR value (THZ531; 0.0001 µM): 1.06 GR
GR value (THZ531; 0.0003162 µM): 0.984 GR
GR value (THZ531; 0.001 µM): 1.04 GR
GR value (THZ531; 0.003162 µM): 0.925 GR
GR value (THZ531; 0.01 µM): 1.15 GR
GR value (THZ531; 0.03162 µM): 1.06 GR
GR value (THZ531; 0.1 µM): 0.675 GR
GR value (THZ531; 0.3162 µM): -0.121 GR
GR value (THZ531; 1 µM): -0.102 GR
GR value (LEE011/Ribociclib; 0.001 µM): 0.614 GR
GR value (LEE011/Ribociclib; 0.003162 µM): 0.624 GR
GR value (LEE011/Ribociclib; 0.01 µM): 0.407 GR
GR value (LEE011/Ribociclib; 0.03162 µM): 0.413 GR
GR value (LEE011/Ribociclib; 0.1 µM): 0.297 GR
GR value (LEE011/Ribociclib; 0.3162 µM): 0.244 GR
GR value (LEE011/Ribociclib; 1 µM): 0.174 GR
GR value (LEE011/Ribociclib; 3.162 µM): 0.151 GR
GR value (LEE011/Ribociclib; 10 µM): 0.163 GR

CAL120
GR50, 72 h (Paclitaxel): 0.00288 µM
GR50, 72 h (R0-3306): 8.5 µM
GR50, 72 h (Flavopiridol [1]): 0.209 µM
GR50, 72 h [2]: > 10 µM
GR50, 72 h (AZD5363): > 10 µM
GR50, 72 h (BSJ-03-123 [3]): 5.27 µM
GR50, 72 h [4]: 0.00177 µM
GR50, 72 h (Neratinib/HKI272): 0.585 µM
GR50, 72 h (BVD523): 9.62 µM
GR value ([5]; 0.001 µM): 0.93 GR
GR value ([5]; 0.003162 µM): 0.85 GR
GR value ([5]; 0.01 µM): 0.715 GR
GR value ([5]; 0.03162 µM): 0.659 GR
GR value ([5]; 0.1 µM): 0.609 GR
GR value ([5]; 0.3162 µM): 0.594 GR
GR value ([5]; 1 µM): 0.377 GR
GR value ([5]; 3.162 µM): -0.0553 GR
GR value ([5]; 10 µM): -0.138 GR
GR value (YKL-5-124; 0.001 µM): 0.776 GR
GR value (YKL-5-124; 0.003162 µM): 0.599 GR
GR value (YKL-5-124; 0.01 µM): 0.467 GR
GR value (YKL-5-124; 0.03162 µM): 0.385 GR
GR value (YKL-5-124; 0.1 µM): 0.377 GR
GR value (YKL-5-124; 0.3162 µM): 0.313 GR
GR value (YKL-5-124; 1 µM): 0.328 GR
GR value (YKL-5-124; 3.162 µM): 0.324 GR
GR value (YKL-5-124; 10 µM): 0.187 GR
GR value ([6]; 0.0001 µM): 1.01 GR
GR value ([6]; 0.0003162 µM): 0.995 GR
GR value ([6]; 0.001 µM): 1.03 GR
GR value ([6]; 0.003162 µM): 1.01 GR
GR value ([6]; 0.01 µM): 0.495 GR
GR value ([6]; 0.03162 µM): -0.0996 GR
GR value ([6]; 0.1 µM): -0.125 GR
GR value ([6]; 0.3162 µM): -0.129 GR
GR value ([6]; 1 µM): -0.116 GR
GR value (Flavopiridol [7]; 0.0001 µM): 0.984 GR
GR value (Flavopiridol [7]; 0.0003162 µM): 0.934 GR
GR value (Flavopiridol [7]; 0.001 µM): 0.919 GR
GR value (Flavopiridol [7]; 0.003162 µM): 0.917 GR
GR value (Flavopiridol [7]; 0.01 µM): 0.901 GR
GR value (Flavopiridol [7]; 0.03162 µM): 0.88 GR
GR value (Flavopiridol [7]; 0.1 µM): 0.719 GR
GR value (Flavopiridol [7]; 0.3162 µM): 0.342 GR
GR value (Flavopiridol [7]; 1 µM): -0.0548 GR
GR value (BSJ-03-123 [8]; 0.001 µM): 0.923 GR
GR value (BSJ-03-123 [8]; 0.003162 µM): 0.923 GR
GR value (BSJ-03-123 [8]; 0.01 µM): 0.969 GR
GR value (BSJ-03-123 [8]; 0.03162 µM): 0.906 GR
GR value (BSJ-03-123 [8]; 0.1 µM): 0.861 GR
GR value (BSJ-03-123 [8]; 0.3162 µM): 0.9 GR
GR value (BSJ-03-123 [8]; 1 µM): 0.755 GR
GR value (BSJ-03-123 [8]; 3.162 µM): 0.759 GR
GR value (BSJ-03-123 [8]; 10 µM): 0.234 GR
GR value (THZ1; 0.0001 µM): 1.02 GR
GR value (THZ1; 0.0003162 µM): 0.971 GR
GR value (THZ1; 0.001 µM): 0.979 GR
GR value (THZ1; 0.003162 µM): 0.92 GR
GR value (THZ1; 0.01 µM): 0.938 GR
GR value (THZ1; 0.03162 µM): 0.656 GR
GR value (THZ1; 0.1 µM): 0.324 GR
GR value (THZ1; 0.3162 µM): 0.154 GR
GR value (THZ1; 1 µM): -0.159 GR
GR value (THZ531; 0.0001 µM): 1.03 GR
GR value (THZ531; 0.0003162 µM): 1.03 GR
GR value (THZ531; 0.001 µM): 0.934 GR
GR value (THZ531; 0.003162 µM): 1.04 GR
GR value (THZ531; 0.01 µM): 1.06 GR
GR value (THZ531; 0.03162 µM): 0.891 GR
GR value (THZ531; 0.1 µM): 0.589 GR
GR value (THZ531; 0.3162 µM): 0.275 GR
GR value (THZ531; 1 µM): -0.0063 GR
GR value (LEE011/Ribociclib; 0.001 µM): 0.879 GR
GR value (LEE011/Ribociclib; 0.003162 µM): 0.818 GR
GR value (LEE011/Ribociclib; 0.01 µM): 0.765 GR
GR value (LEE011/Ribociclib; 0.03162 µM): 0.809 GR
GR value (LEE011/Ribociclib; 0.1 µM): 0.703 GR
GR value (LEE011/Ribociclib; 0.3162 µM): 0.732 GR
GR value (LEE011/Ribociclib; 1 µM): 0.646 GR
GR value (LEE011/Ribociclib; 3.162 µM): 0.631 GR
GR value (LEE011/Ribociclib; 10 µM): 0.664 GR
